Measured values published in US9079893B2, “Ureido-pyrazole derivatives for use in the treatment of respiratory syncitial virus (RSV) infection” (Respivert, Ltd., priority 2010, dated 2015).
Where two headings read alike, the source gives them in different places.

Assays:
[1] = test system: RSV Memphis 37 induced IL-8 release; assay: RSV Memphis 37 induced IL-8 release in air-liquid interface cultured primary nasal epithelial cells; type: cell-based; conditions: primary 3D cultured nasal epithelial cells, RSV Memphis 37, FIG. 1
Method: Primary nasal epithelial cells, cultured using an air-liquid interface, were purchased from Epithelix Sarl (Geneva, Switzerland). Fresh, warmed media (200 μL) containing either the test compound at the selected concentration or vehicle (DMSO; final concentration of 0.5%) was transferred to the apical chamber, and fresh, warmed media (700 μL) containing either the test compound at the selected concentration or vehicle (DMSO; final concentration of 0.5%) were transferred to the bottom chamber. After incubation for 2 hr, the media in upper well was removed carefully. The following day, fresh, warmed media (200 μL) containing either the test compound at the selected concentration or vehicle (DMSO; final concentration of 0.5%) was transferred to the apical chamber again, and after incubation for 2 hr, the media was removed. On the third day, cells were treated again for 2 hr, and the media was removed.
The cells in the apical well were infected with 50 μL of RSV Memphis 37 virus (Meridian) 2 (producing an MOI of approximately 0.1 at the estimated cell number of 1×10^6/well) and incubated for 1 hr. The apical media was then removed by aspiration and the wells were washed twice with warmed PBS. The plate was incubated at 37° C. […]
IL-8 concentrations were determined using a Duoset ELISA development kit (R&D Systems, Minneapolis, Minn.; FIG. 1)

[2] = test system: RSV F-protein expression in CF-BEC; assay: RSV F-protein expression in CF-BEC (HBECs from patients with cystic fibrosis) infected with RSV; type: cell-based, respiratory syncitial virus (RSV A2); conditions: for CF-BEC E-max (%): test conc μg/mL: 0.0016-0.2 (Examples 1, 59), 0.04-0.2 (fluticasone propionate), 10 (ribavirin); for IC50: human respiratory syncytial virus, 96 h, read-out: CF-BEC IC50 (nM)
Method: (§1) Normal human bronchial epithelial cells (NHBEC) grown in 96 well plates, were infected at a multiplicity of infection (MOI) of 0.001 with RSV A2 (Strain A2, HPA, Salisbury, UK;) in LHC8 Media: RPMI-1640 (50:50) containing 15 mM magnesium chloride, and incubated for 1 hr at 37° C. to promote adsorption. The cells were then washed with PBS to remove non-infected virus particle and incubated for 4 days in fresh media. As appropriate, cells were pre-incubated with the test compound or DMSO for 2 hr, and then added again after wash with PBS as shown above.
(§2) The cells were fixed with 4% formaldehyde in PBS solution for 20 min, washed with washing buffer: PBS including 0.5% BSA and 0.05% Tween-20) (WB) and incubated with blocking solution (5% condensed milk in PBS) for 1 hr. Cells were then washed with WB and incubated for 1 hr at RT with anti-RSV (2F7) F-fusion protein antibody (mouse monoclonal) (lot 798760, Cat. No. ab43812, Abcam). After washing, cells were incubated with an HRP-conjugated secondary antibody (lot 00053170, Cat. No. P0447, Dako) and then TMB substrate (substrate reagent pack (lot 269472, Cat. No. DY999, R&D Systems, Inc.) was added.
(§3) The reaction was stopped by the addition of 2NH2SO4 (50 μL) and the resultant signal was determined colorimetrically (OD: 450 nm with a reference wavelength of 655 nm) in a microplate reader (Varioskan® Flash, ThermoFisher Scientific). Cells were then washed and a 2.5% crystal violet solution (lot 8656, Cat. No. PL7000, Pro-Lab Diagnostics) was applied for 30 mins. After washing with WB, 100 μL of 1% SDS was added to each well, and plates were shaken lightly on the shaker for 1 hr prior to reading the absorbance at 595 nm. The measured OD450-655 readings were corrected to the cell number by dividing the OD450-655 by the OD595 readings. The percentage inhibition for each well was calculated and the IC50 value was calculated from the concentration-response curve generated by the serial dilutions of compound.
(§4) HBECs obtained from patients with cystic fibrosis (CF-BEC) and Hep2 cells (human larynx epidermoid carcinoma cell line) were also used.

[3] = test system: RSV F-protein expression in Hep2 cells; assay: RSV F-protein expression in Hep2 cells infected with RSV; type: cell-based, respiratory syncitial virus (RSV A2); conditions: for Hep2 E-max (%): Hep2 cells, test conc μg/mL: 0.0016-0.2 (Examples 1, 59), 0.04-0.2 (fluticasone propionate), 10 (ribavirin); for IC50: human respiratory syncytial virus, HEp-2, 96 h
Method: as §1, §2, §3, §4

[4] = test system: RSV F-protein expression in NHBEC; assay: RSV F-protein expression in NHBEC infected with RSV A2 (in vitro RSV virus load); type: cell-based, respiratory syncitial virus (RSV A2); conditions: for NHBEC E-max (%): test conc μg/mL: 0.0016-0.2 (Examples 1, 59), 0.04-0.2 (fluticasone propionate), 10 (ribavirin); for IC50 / inhibition at 0.04 µg/mL: human respiratory syncytial virus, 96 h; for inhibition at 0.04 µg/mL: read-out: % inhibition (at 0.04 μg/mL)
Method: as §1, §2, §3

human RSV A2 = assay: RSV virus load in mouse lung; type: in vivo, Balb/c mice; conditions: for Lung virus load (TCID50/g lung tissue ×10^3), day 3: 3 days post RSV infection; for Lung virus load (TCID50/g lung tissue ×10^3), day 5: 5 days post RSV infection; for Lung virus load (TCID50/g lung tissue ×10^3), day 7: 7 days post RSV infection; for inhibition of lung viral load: Day 5 post-infection (peak of virus titre), versus vehicle-dosed animals; for augmentation of viral load at Day 9: Day 9, when virus had been eliminated in vehicle-treated mice
Method: Wild type, specific pathogen-free male Balb/c mice aged 8 weeks and weighing approximately 25 g were obtained from the Animal Resource Centre Pty. Ltd., Australia. On day zero, appropriate animal groups were anaesthetised with the inhalation anaesthetic methoxyfluorane and nasally inoculated with either virus diluent (low protein serum free VPSSM from Invitrogen) or 10^6 TCID50 units of human RSV A2 in a volume of 50 μL. […] Eleven to thirteen animals from each group were sacrificed on days 3, 5, 7 and 9 to enable lung viral load to be determined using a plaque assay (Table 5).

RSV Memphis 37 = assay: RSV titre assay (CPE in Hep2) of air-liquid interface cultured primary nasal epithelial cells; type: cell-based, respiratory syncitial virus (RSV Memphis 37); conditions: primary 3D cultured nasal epithelial cells, RSV Memphis 37, log [TCID50], FIG. 2
Method: Primary nasal epithelial cells, cultured using an air-liquid interface, were purchased from Epithelix Sarl (Geneva, Switzerland). Fresh, warmed media (200 μL) containing either the test compound at the selected concentration or vehicle (DMSO; final concentration of 0.5%) was transferred to the apical chamber, and fresh, warmed media (700 μL) containing either the test compound at the selected concentration or vehicle (DMSO; final concentration of 0.5%) were transferred to the bottom chamber. After incubation for 2 hr, the media in upper well was removed carefully. The following day, fresh, warmed media (200 μL) containing either the test compound at the selected concentration or vehicle (DMSO; final concentration of 0.5%) was transferred to the apical chamber again, and after incubation for 2 hr, the media was removed. On the third day, cells were treated again for 2 hr, and the media was removed. […]
The virus titre was estimated by CPE assay in Hep2 cells as follows: Supernatant (20 μL) was collected and 10-fold serial dilutions were prepared in 5%-FBS DMEM. […] The resultant cytopathic effects (CPE) were assessed by visual inspection 3 days after infection. The amount of virus required to infect 50% of Hep2 cells was calculated for each treatment and is reported as log [TCID50] […]

[5] = intra-tracheal 20 μL of 0.1 mg/mL, mean ± SEM

Which results are given for `COCC(=O)Nc1cc(COc2ccc(NC(=O)Nc3cc(C(C)(C)C)nn3-c3ccc(C)cc3)c3ccccc23)ccn1` [Example 1, N-(4-((4-(3-(3-tert-Butyl-1-p-tolyl-1H-pyrazol-5-yl)ureido)naphthalen-1-yloxy)methyl)pyridin-2-yl)-2-methoxy acetamide]?
inhibition on RSV-induced IL-8 production [1]: strong inhibition; CF-BEC E-max (%) [2]: 84%; IC50 [2]: 69 nM; Hep2 E-max (%) [3]: 24%; NHBEC E-max (%) [4]: 51%; IC50 [4]: 40.8 nM; inhibition at 0.04 µg/mL [4]: 46.8%; IC50 ([4]; read-out: NHBEC IC50 (nM)): 41 nM; Lung virus load (TCID50/g lung tissue ×10^3), day 3 (human RSV A2; [5]): 66 ± 18 TCID50/g lung tissue ×10^3; Lung virus load (TCID50/g lung tissue ×10^3), day 5 (human RSV A2; [5]): 1,545 ± 918^ TCID50/g lung tissue ×10^3; Lung virus load (TCID50/g lung tissue ×10^3), day 7 (human RSV A2; [5]): 7.1 ± 5.2 TCID50/g lung tissue ×10^3; inhibition of lung viral load (human RSV A2): 67%; augmentation of viral load at Day 9 (human RSV A2): did not augment viral load; inhibition on RSV viral load (RSV Memphis 37): strong inhibition

With `CNC(=O)Nc1cc(Oc2ccc(NC(=O)Nc3cc(C(C)(C)C)nn3-c3ccc(C)cc3)c3ccccc23)ccn1` [Example 88] as the compound, how does the inhibition at 0.04 µg/mL [4] read?
Its inhibition at 0.04 µg/mL is 71.7%.

Which “CF-BEC E-max (%)” value [2] does the source give for `NC(=O)c1ncn([C@@H]2O[C@H](CO)[C@@H](O)[C@H]2O)n1` [Ribavirin, reference compound] here?
Its value is 53%.

And the “Hep2 E-max (%)” value [3]?
Its value is 93%.

What about the IC50 ([3]; read-out: Hep2 IC50 (footnote a: μM)) of the same compound?
The IC50 was 9 µM.

What about the “NHBEC E-max (%)” value [4] of the same compound?
Its value is 78%.

Which “CF-BEC E-max (%)” value [2] does the source give for `COCC(=O)Nc1cc(Oc2ccc(NC(=O)Nc3cc(C(C)(C)C)nn3-c3ccc(C)cc3)c3ccccc23)ccn1` [Example 59, N-(4-(4-(3-(3-tert-Butyl-1-p-tolyl-1H-pyrazol-5-yl)ureido)naphthalen-1-yloxy)pyridin-2-yl)-2-methoxyacetamide] here?
Its value is 87%.

What about the IC50 [2] of the same compound?
The IC50 was 58 nM.

And the “Hep2 E-max (%)” value [3]?
Its value is 58%.

And the IC50 ([3]; read-out: Hep2 IC50 (nM))?
The IC50 was 0.289 µM.

And the “NHBEC E-max (%)” value [4]?
Its value is 78%.

And the inhibition at 0.04 µg/mL [4]?
The inhibition at 0.04 µg/mL was 67.5%.

And the “Lung virus load (TCID50/g lung tissue ×10^3), day 3” value (human RSV A2; [5])?
The value was 81 ±29 TCID50/g lung tissue ×10^3.

And the “Lung virus load (TCID50/g lung tissue ×10^3), day 5” value (human RSV A2; [5])?
Its value is 448 ± 268 TCID50/g lung tissue ×10^3.

And the “Lung virus load (TCID50/g lung tissue ×10^3), day 7” value (human RSV A2; [5])?
Its value is 2.4 ± 0.8 TCID50/g lung tissue ×10^3.

And the “Lung virus load (TCID50/g lung tissue ×10^3), day 9” value (human RSV A2; 9 days post RSV infection, intra-tracheal 20 μL of 0.1 mg/mL, mean ± SEM)?
The value was 0.3 ± 0.1 TCID50/g lung tissue ×10^3.

And the “inhibition of lung viral load” value (human RSV A2)?
The value was 90%.

And the “augmentation of viral load at Day 9” value (human RSV A2)?
Its value is “did not augment viral load”.

Which “CF-BEC E-max (%)” value [2] does the source give for `CCC(=O)O[C@]1(C(=O)SCF)[C@H](C)C[C@H]2[C@@H]3C[C@H](F)C4=CC(=O)C=C[C@]4(C)[C@@]3(F)[C@@H](O)C[C@@]21C` [Fluticasone propionate, reference compound] here?
The value was 10%.

What about the “NHBEC E-max (%)” value [4] of the same compound?
The value was −38%.

For `Cc1ccc(-n2nc(C(C)(C)C)cc2NC(=O)Nc2ccc(Oc3ccnc(NC(=O)N4CCCC4)c3)c3ccccc23)cc1` [Example 65, N-(4-(4-(3-(3-tert-Butyl-1-p-tolyl-1H-pyrazol-5-yl)ureido)naphthalen-1-yloxy)pyridin-2-yl)pyrrolidine-1-carboxamide], which inhibition at 0.04 µg/mL [4] is on record?
The inhibition at 0.04 µg/mL was 56.5%.

Which IC50 [4] does the source give for `Cc1ccc(-n2nc(C(C)(C)C)cc2NC(=O)Nc2ccc(OCCc3ccnc(NC(N)=O)c3)c3ccccc23)cc1` [Example 40, 4-(2-(4-(3-(3-tert-Butyl-1-p-tolyl-1H-pyrazol-5-yl)ureido)naphthalen-1-yloxy)ethyl)-3-(pyridin-2-yl)urea] here?
The IC50 was 103 nM.

What about the inhibition at 0.04 µg/mL [4] of the same compound?
The inhibition at 0.04 µg/mL was 24.9%.
